Results as given in the supplement of paper PMC10307832.

Legend:
Experiment in all cases: relative viability (nuclei count vs DMSO), 5 days (fraction); higher = more cells survive
A-427 = test system: A-427
Procedure, shortened: (§1)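 Lung cancer cell lines, seeded in 1536-well plates, were treated the following day by pin tool with a single drug or with five library-drug doses (not always all listed) in √10 steps on top of a fixed anchor-drug dose. Cells were fixed and nuclei stained in one step after 5 days, and nuclei were counted. Relative viability is the nuclei count for treated wells divided by that for vehicle wells, reported as medians of duplicate plates.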

COR-L23 = test system: COR-L23
Procedure, shortened: as §1

ChaGo-K-1 = test system: ChaGo-K-1
Procedure, shortened: as §1

EKVX = test system: EKVX
Procedure, shortened: as §1

EPLC-272H = test system: EPLC-272H
Procedure, shortened: as §1

HCC-44 = test system: HCC-44
Procedure, shortened: as §1

HOP-62 = test system: HOP-62
Procedure, shortened: as §1

LOU-NH91 = test system: LOU-NH91
Procedure, shortened: as §1

NCI-H1395 = test system: NCI-H1395
Procedure, shortened: as §1

NCI-H1650 = test system: NCI-H1650
Procedure, shortened: as §1

NCI-H1734 = test system: NCI-H1734
Procedure, shortened: as §1

NCI-H1915 = test system: NCI-H1915
Procedure, shortened: as §1

NCI-H2023 = test system: NCI-H2023
Procedure, shortened: as §1

NCI-H2087 = test system: NCI-H2087
Procedure, shortened: as §1

NCI-H3122 = test system: NCI-H3122
Procedure, shortened: as §1

NCI-H358 = test system: NCI-H358
Procedure, shortened: as §1

NCI-H596 = test system: NCI-H596
Procedure, shortened: as §1

NCI-H650 = test system: NCI-H650
Procedure, shortened: as §1

NCI-H661 = test system: NCI-H661
Procedure, shortened: as §1

NCI-H838 = test system: NCI-H838
Procedure, shortened: as §1

SK-MES-1 = test system: SK-MES-1
Procedure, shortened: as §1

SMILES: O=c1[nH]c2ccccc2n1C1CCN(CCCC(c2ccc(F)cc2)c2ccc(F)cc2)CC1 [Pimozide] + CCNC(=O)c1noc(-c2cc(C(C)C)c(O)cc2O)c1-c1ccc(CN2CCOCC2)cc1 [Luminespib] (partner 0.01 µM)
- relative viability (A-427; first compound 0.08 µM): 0.703
- relative viability (A-427; first compound 0.253 µM): 0.793
- relative viability (A-427; first compound 0.8 µM): 0.936
- relative viability (A-427; first compound 2.53 µM): 0.857
- relative viability (A-427; first compound 8 µM): 0.768
- relative viability (COR-L23; first compound 0.08 µM): 0.603
- relative viability (COR-L23; first compound 0.253 µM): 0.628
- relative viability (COR-L23; first compound 0.8 µM): 0.594
- relative viability (COR-L23; first compound 2.53 µM): 0.61
- relative viability (COR-L23; first compound 8 µM): 0.707
- relative viability (ChaGo-K-1; first compound 0.08 µM): 0.48
- relative viability (ChaGo-K-1; first compound 0.253 µM): 0.472
- relative viability (ChaGo-K-1; first compound 0.8 µM): 0.375
- relative viability (ChaGo-K-1; first compound 2.53 µM): 0.496
- relative viability (ChaGo-K-1; first compound 8 µM): 0.484
- relative viability (EKVX; first compound 0.08 µM): 0.699
- relative viability (EKVX; first compound 0.253 µM): 0.86
- relative viability (EKVX; first compound 0.8 µM): 0.807
- relative viability (EKVX; first compound 2.53 µM): 0.909
- relative viability (EKVX; first compound 8 µM): 0.802
- relative viability (EPLC-272H; first compound 0.08 µM): 0.622
- relative viability (EPLC-272H; first compound 0.253 µM): 0.557
- relative viability (EPLC-272H; first compound 0.8 µM): 0.185
- relative viability (EPLC-272H; first compound 2.53 µM): 0.244
- relative viability (EPLC-272H; first compound 8 µM): 0.206
- relative viability (HCC-44; first compound 0.08 µM): 1.17
- relative viability (HCC-44; first compound 0.253 µM): 1.02
- relative viability (HCC-44; first compound 0.8 µM): 0.953
- relative viability (HCC-44; first compound 2.53 µM): 0.994
- relative viability (HCC-44; first compound 8 µM): 1.01
- relative viability (HOP-62; first compound 0.08 µM): 0.995
- relative viability (HOP-62; first compound 0.253 µM): 0.875
- relative viability (HOP-62; first compound 0.8 µM): 0.709
- relative viability (HOP-62; first compound 2.53 µM): 0.904
- relative viability (HOP-62; first compound 8 µM): 0.873
- relative viability (LOU-NH91; first compound 0.08 µM): 0.377
- relative viability (LOU-NH91; first compound 0.253 µM): 0.345
- relative viability (LOU-NH91; first compound 0.8 µM): 0.399
- relative viability (LOU-NH91; first compound 2.53 µM): 0.359
- relative viability (LOU-NH91; first compound 8 µM): 0.313
- relative viability (NCI-H1395; first compound 0.08 µM): 0.846
- relative viability (NCI-H1395; first compound 0.253 µM): 0.595
- relative viability (NCI-H1395; first compound 0.8 µM): 0.704
- relative viability (NCI-H1395; first compound 2.53 µM): 0.927
- relative viability (NCI-H1395; first compound 8 µM): 0.683
- relative viability (NCI-H1650; first compound 0.08 µM): 0.206
- relative viability (NCI-H1650; first compound 0.253 µM): 0.204
- relative viability (NCI-H1650; first compound 0.8 µM): 0.187
- relative viability (NCI-H1650; first compound 2.53 µM): 0.187
- relative viability (NCI-H1650; first compound 8 µM): 0.199
- relative viability (NCI-H1734; first compound 0.08 µM): 0.168
- relative viability (NCI-H1734; first compound 0.253 µM): 0.17
- relative viability (NCI-H1734; first compound 2.53 µM): 0.154
- relative viability (NCI-H1734; first compound 8 µM): 0.374
- relative viability (NCI-H1915; first compound 0.08 µM): 0.807
- relative viability (NCI-H1915; first compound 0.253 µM): 0.8
- relative viability (NCI-H1915; first compound 0.8 µM): 0.714
- relative viability (NCI-H1915; first compound 2.53 µM): 0.666
- relative viability (NCI-H1915; first compound 8 µM): 0.782
- relative viability (NCI-H2023; first compound 0.08 µM): 0.755
- relative viability (NCI-H2023; first compound 0.253 µM): 0.707
- relative viability (NCI-H2023; first compound 0.8 µM): 0.709
- relative viability (NCI-H2023; first compound 2.53 µM): 0.507
- relative viability (NCI-H2023; first compound 8 µM): 0.596
- relative viability (NCI-H2087; first compound 0.08 µM): 0.192
- relative viability (NCI-H2087; first compound 0.253 µM): 0.205
- relative viability (NCI-H2087; first compound 2.53 µM): 0.171
- relative viability (NCI-H2087; first compound 8 µM): 0.228
- relative viability (NCI-H3122; first compound 0.08 µM): 0.109
- relative viability (NCI-H3122; first compound 0.253 µM): 0.0961
- relative viability (NCI-H3122; first compound 0.8 µM): 0.105
- relative viability (NCI-H3122; first compound 2.53 µM): 0.0832
- relative viability (NCI-H3122; first compound 8 µM): 0.0656
- relative viability (NCI-H358; first compound 0.08 µM): 0.317
- relative viability (NCI-H358; first compound 0.253 µM): 0.382
- relative viability (NCI-H358; first compound 0.8 µM): 0.333
- relative viability (NCI-H358; first compound 2.53 µM): 0.399
- relative viability (NCI-H358; first compound 8 µM): 0.206
- relative viability (NCI-H596; first compound 0.08 µM): 0.97
- relative viability (NCI-H596; first compound 0.253 µM): 1.11
- relative viability (NCI-H596; first compound 0.8 µM): 1.11
- relative viability (NCI-H596; first compound 2.53 µM): 0.776
- relative viability (NCI-H596; first compound 8 µM): 0.847
- relative viability (NCI-H650; first compound 0.08 µM): 0.765
- relative viability (NCI-H650; first compound 0.253 µM): 0.76
- relative viability (NCI-H650; first compound 0.8 µM): 0.838
- relative viability (NCI-H650; first compound 2.53 µM): 0.786
- relative viability (NCI-H650; first compound 8 µM): 0.765
- relative viability (NCI-H661; first compound 0.08 µM): 0.929
- relative viability (NCI-H661; first compound 0.253 µM): 0.879
- relative viability (NCI-H661; first compound 0.8 µM): 0.887
- relative viability (NCI-H661; first compound 2.53 µM): 0.878
- relative viability (NCI-H661; first compound 8 µM): 0.896
- relative viability (NCI-H838; first compound 0.08 µM): 0.263
- relative viability (NCI-H838; first compound 0.253 µM): 0.379
- relative viability (NCI-H838; first compound 0.8 µM): 0.309
- relative viability (NCI-H838; first compound 2.53 µM): 0.296
- relative viability (NCI-H838; first compound 8 µM): 0.244
- relative viability (SK-MES-1; first compound 0.08 µM): 0.859
- relative viability (SK-MES-1; first compound 0.253 µM): 0.766
- relative viability (SK-MES-1; first compound 0.8 µM): 0.702
- relative viability (SK-MES-1; first compound 2.53 µM): 0.815
- relative viability (SK-MES-1; first compound 8 µM): 0.596
